Assay results reported in US5618675A, “Methods and compositions for detecting lipopolysaccharides using CAP18 fragments” (Panorama Research, Inc., dated 1997).
Where two headings read alike, the source gives them in different places.

Experiments:
[1] = system: RAW 264.7 cells; type: cell-based, murine; details: for Inhibition of LPS-induced RNI-IC50: LPS-induced (2.5 ng/ml LPS in FIG. 6B); for concentrations at which peptides are active in the bioassay: day-to-day variation
Experimental: From the sequence of the CAP18 cDNA, it was apparent that the putative N-terminal peptide of CAP18 was in fact an internal fragment of the CAP18 protein. We therefore tried to reconfirm the original protein sequence. Neutrophil-derived heparin bound cationic proteins were prepared as described above and applied to a C18 reverse phase HPLC (FIG. 1). We sequenced the major peaks. Peaks at fractions 14.5 and 15.2 correspond to defensins MCP1 and MCP2 (Territo et al. (1989) J. Clin. Invest. 84:2017-2019), respectively. Fraction 25.8 is macrophage related protein 14 (MRP14) (Odink et al. (1987) Nature 330:80-82). The fraction at 20.3 minutes corresponds to a fragment of CAP18 of approximately 4-5 kD. […] The murine macrophage cell line RAW 264.7 (obtained from ATCC) and thioglycolate-elicited murine peritoneal exudate cells are used to produce RNI. Cells are cultured at 1×10^6 /ml. in RPMI-1640 +2.5% FCS in 24 well plates in the presence or absence of different concentrations of LPS or murine rlFNγ. After 24 hr. incubation at 37° C. the cell free supernatant is collected and tested for the presence of RNI. Accumulation of nitrite in the medium is measured by a colorimetric assay based on the Griess reaction (Green et al. (1982) Anal. Biochem. 126:11) using sodium nitrite as standards. Sample (50 μl) is mixed with 50 μl of Griess reagent (1% sulfanilamide, 0.1% naphthalene diamine dihydrochloride, 2.5% H3 PO4) and after 10 min. at room temperature absorbance is read at 570 nm.

[2] = system: Salmonella minnesota ReLPS sensitized sheep erythrocytes; assay: LPS hemagglutination assay (MAC); type: binding
Experimental: For hemagglutination assays, erythrocytes were sensitized with LPS as follows. One ml of 1% erythrocyte suspension (human 0 type, C3H/HeN mouse or sheep) was mixed with 0.2 ml of LPS solution and incubated at 37° C. for 30 min, followed by washing with phosphate buffered saline (PBS), and then the concentration of suspension was adjusted to 1.0%. In the case of S-LPS, the solution was heated at 100° C. for 1 hour before sensitization of erythrocytes. […] Activity of CAP was expressed as a minimum agglutinating concentration (MAC) of CAP. According to the method of Kirikae et al. (1986) Microbiol. Immunol. 30:269-274, 50 μl of 2-fold serial dilution of Re-LPS was added to 50 μl of 1.0% rabbit erythrocyte suspension, and incubated at 37° C. for 3, hour. Minimum agglutinating concentration of Re-LPS was expressed as 1 HA unit.

[3] = system: two strains of Mycobacterium avium; assay: Antimicrobial activity; type: cell-based; details: range 0-20 μg/ml
[4] = system: thioglycolate-stimulated murine peritoneal macrophages; assay: LPS-induced tissue factor generation by macrophages; type: cell-based; details: for inhibition of LPS induced tissue factor: peptide 1 μg/ml, 6 hr, FIG. 12
Experimental: […] Cells were cultured for 6 hours prior to assay of tissue factor by clotting assay.
[…] Production of tissue factor after 6 hr. was measured by clotting assay. […] In the absence of LPS no tissue factor is synthesized by these cells.

[5] = system: Human plasma; assay: Activated partial thromboplastin time (APTT); type: biochemical
Experimental: (§1) Clotting method: Human plasma (Ortho plasma control, Ortho Diagnostic Co.). ATPP reagent (Organotechnika, Tokyo, Japan). Standard tissue factor, rabbit brain thromboplastin (Simplastin, ONO Pharmaceutical, Tokyo, Japan). Purified human factor VII, factor X, factor Xa (Sigma Chemical Co., St. Louis, Mo.). Russell Viper venom (RVV) and Echis carinatus venom (ECV, Sigma Co.).
Instrumentation: Clotting assays were carried out using a Fibrometer (BioQuest Division, Becton Dickinson; Cokeysville, […]., USA).
Human plasma (100 μl), 100 μl of APTT reagent and 100 μl of peptide was incubated at 37° C. for 5 min after which CaCl2 was added and clotting time measured.

[6] = target: T1, factor Xa (Homo sapiens, UniProt P00742); assay: Direct inhibition of Xa, substrate S2222; type: biochemical; details: for direct Xa inhibition: concentrations over 10 μg/ml, substrate S2222; for IC50 / IC50, Direct Xa: synthetic substrate
T1 construct: purchased Sigma Chemical Co., St. Louis, Mo
T1 sequence (P00742 41-179 limits assumed): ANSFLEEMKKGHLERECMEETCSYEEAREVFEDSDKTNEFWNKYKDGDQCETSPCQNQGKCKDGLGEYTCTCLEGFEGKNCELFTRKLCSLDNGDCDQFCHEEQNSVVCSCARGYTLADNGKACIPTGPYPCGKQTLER
T1 sequence (P00742 235-488 limits assumed): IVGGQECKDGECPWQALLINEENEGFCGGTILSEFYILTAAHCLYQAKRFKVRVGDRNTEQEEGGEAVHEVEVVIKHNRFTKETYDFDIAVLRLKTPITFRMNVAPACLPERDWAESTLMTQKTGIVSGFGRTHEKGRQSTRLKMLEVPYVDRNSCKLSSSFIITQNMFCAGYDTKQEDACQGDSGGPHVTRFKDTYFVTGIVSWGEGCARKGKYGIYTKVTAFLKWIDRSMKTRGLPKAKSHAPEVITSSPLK
Source text: as §1
(§2) Synthetic chromogenic substrate method: Substrate for factor Xa, S2222 (Kabi, Bz-Ile-Glu-Arg-pNA) was used. Substrate for factor II (prothrombin), Boc-Val-Pro-Arg-pNA (Sigma Chemical Co.) was used.
Next the effect of the RNIP peptides on the conversion of factor X to Xa was studied by two methods. […] In summary these studies confirmed that the peptides inhibit the clotting cascade by inhibiting the conversion of factor X to Xa.

[7] = target: T2, factor X (Homo sapiens, UniProt P00742); assay: Factor X activation by tissue factor and factor VII, synthetic substrate S-2222; type: biochemical; details: FIG. 16B
T2 construct: purchased Sigma Chemical Co., St. Louis, Mo
T2 sequence (P00742 41-179 limits assumed): as the sequence (P00742 41-179 limits assumed) above
T2 sequence (P00742 183-488 limits assumed): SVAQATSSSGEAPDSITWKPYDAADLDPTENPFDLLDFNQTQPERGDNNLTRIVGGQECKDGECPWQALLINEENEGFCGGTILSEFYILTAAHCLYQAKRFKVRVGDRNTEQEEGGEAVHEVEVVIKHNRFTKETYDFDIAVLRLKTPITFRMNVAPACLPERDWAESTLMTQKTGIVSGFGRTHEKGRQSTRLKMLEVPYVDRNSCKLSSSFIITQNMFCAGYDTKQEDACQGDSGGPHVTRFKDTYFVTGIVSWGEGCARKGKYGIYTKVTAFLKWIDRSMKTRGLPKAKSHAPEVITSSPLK
Source text: as §1, §2
A reaction mixture of factor VII (1 unit/ml, 200 μl), factor X (1 unit/ml, 200 μl), tissue factor (2.5 mg/ml, 50 μl), 25 mM-CaCl2(50 μl) and 50 μl of several concentration of peptide was incubated at 37° C. for 10 min. To 200 μl of the reaction mixture, 60 μl of 4 mM S-2222, a synthetic substrate for factor Xa, and 340 μl of Tris-HCl buffer, pH 8.2, was added and further incubated for 15 min. The reaction was stopped by adding 60 μl of 50% acetic acid, and OD for p-nitroaniline was read at 405 nm.

[8] = target: prothrombin (factor II) (Homo sapiens, UniProt P00734); assay: Prothrombin activation by Echis carinatus venom (ECV); type: biochemical; details: FIG. 17A
Experimental: as §2
A reaction mixture of prothrombin (factor II) (0.1 unit/ml, 200 μl), ECV (1 unit/ml, 200 μl), various concentration of peptide (70 μl), 50 μl of 25 mM-CaCl2 and 180 μl of Tris buffer was incubated at 37° C. for 10 min. To 300 μl of the reaction mixture, 60 μl of 4mM-thrombin substrate and 240 μl of buffer was added and further incubated for 15 min.

[9] = system: Candida albicans; assay: Antimicrobial activity; details: range 0-20 μg/ml
[10] = system: Salmonella typhimurium; assay: Antibacterial CFU assay; details: read-out: anti-bacterial IC50 (CFU); FIG. 6D
[11] = system: Klebsiella pneumoniae; assay: Antibacterial CFU assay
[12] = system: methicillin-resistant Staphylococcus aureus; assay: Antibacterial CFU assay; details: for IC50: read-out: IC50, inhibition of CFU

Substance | activity in hemagglutination and inhibition of LPS-induced RNI [1] | Inhibition of LPS-induced RNI-IC50 [1] | concentrations at which peptides are active in the bioassay [1] | Hemagglutination MAC (minimum agglutinating concentration) [2] | activity versus two strains of Mycobacterium avium [3] | inhibition of LPS induced tissue factor [4] | IC50, Activate Partial Thromboplastin time [5] | direct Xa inhibition [6] | IC50 [6] | IC50, Direct Xa [6] | IC50, factor X activated by tissue factor and purified factor VII [7] | inhibition of Echis carinatus venom activation of purified factor II to IIa [8] | activity versus Candida albicans [9] | IC50 [10] | anti-bacterial IC50 (CFU) [11] | IC50, inhibition of CFU [12] | IC50 [12] | also measured
RNIP: reactive nitrogen inhibitory protein, amino acids 135-171 of SEQ ID NO:4 (rabbit CAP18 C-terminus); purified from granulocytes or synthetic (#197) (GLRKRLRKFRNKIKEKLKKIGQKIQGLLPKLAPRTDY) | active | about 0.2 μg/ml | 10 to 50 nM | 7.9 µg/mL | inactive | inhibition | 3.2 µg/mL | No evidence of direct Xa inhibition | 9000 to 33000 nM | 55 to 200 µg/mL | 0.3 to 0.6 µg/mL | inhibited | inactive | 220 to 280 nM | < 0.44 µg/mL | 1 µg/mL | 160 nM | IC50 ([1]; 2.5 ng/ml LPS, FIG. 6B, read-out: 50% inhibitory concentration (IC50), LPS-induced RNI production): ~30 nM; capacity to inhibit LPS-stimulated nitrogen radical release from macrophages ([1]; HPLC-purified rabbit peptides, FIG. 5): active; reactive nitrogen intermediates (RNI) ([1]; LPS (2.5 ng/ml), RNIP (1:1), stimulus alone 27): 4 µM; reactive nitrogen intermediates (RNI) ([1]; LPS (2.5 ng/ml), RNIP (1:10), stimulus alone 27): 16 µM; reactive nitrogen intermediates (RNI) ([1]; LPS (2.5 ng/ml), RNIP (1:100), stimulus alone 27): 24 µM; Inhibition of LPS-induced RNI-IC50 ([1]; listed as 197/RNIP): 0.2 µg/mL; reactive nitrogen intermediates (RNI) ([1]; Murine IFNγ (250 U), RNIP (1:1), stimulus alone 30): 15 µM; reactive nitrogen intermediates (RNI) ([1]; Murine IFNγ (250 U), RNIP (1:10), stimulus alone 30): 18 µM; reactive nitrogen intermediates (RNI) ([1]; Murine IFNγ (250 U), RNIP (1:100), stimulus alone 30): 20 µM; inhibition of LPS-induced tissue factor generation when peptide added after LPS ([4]; added as late as 3 hours after the LPS stimulus, FIG. 13): Significant inhibition; IC50 ([7]; read-out: IC50, factor X activated by tissue factor and purified factor VII): 40 to 100 nM; IC50, Echis carinatus venom activation of factor II to IIa [8]: 9.4 µg/mL; IC50 ([8]; read-out: IC50, Echis carinatus venom activation of factor II to IIa): 1500 nM; IC50 ([11]; read-out: anti-bacterial IC50 (CFU)): < 70 nM
36-1: synthetic rabbit RNIP-derived fragment, amino acids 135-166 of SEQ ID NO:4 (GLRKRLRKFRNKIKEKLKKIGQKIQGLLPKLA) | active | 0.08 µg/mL | 10 to 50 nM | 3.9 µg/mL | inactive | inhibition | 3.8 µg/mL | No evidence of direct Xa inhibition | 8000 to 46000 nM | 45 to 250 µg/mL | 0.6 to 0.7 µg/mL | inhibited | inactive | 220 to 280 nM | < 0.54 µg/mL | 0.72 µg/mL | 130 nM | IC50 ([5]; read-out: IC50, Activate Partial Thromboplastin time): 700 nM
